In patent publication US11077114B2, “Stabilized formulations of CNS compounds” (Supernus Pharmaceuticals, Inc., priority 2010, dated 2021):
Structures can show the parent of a compound that is named as a salt.

How the values were obtained:
[1] = Molindone hydrochloride solubility profile at ambient conditions; assay type: physicochemical; conditions: acidic to slightly acidic media versus neutral to slightly alkaline pH; FIG. 1
Excerpt: As a weakly basic drug, molindone is typically included into formulations in the form of a salt, such as chloride, sulfate, phosphate, monohydrogenphosphate, dihydrogenphosphate, bromide, iodide, acetate, propionate, decanoate, caprylate, formate, oxalate, malonate, succinate, fumarate, maleate, citrate, lactate, tartrate, methanesulfonate, mandelate, and the like.

[2] = pH dependent solution state stability in phosphate buffer at 37° C.; assay type: physicochemical; conditions: 24 hour exposure
[3] = cited from earlier work

CCc1c(C)[nH]c2c1C(=O)C(CN1CCOCC1)CC2 (stereo not drawn) [Molindone, 3-Ethyl-6,7-dihydro-2-methyl-5-(morpholinomethyl)indol-4(5H)-one]
solubility versus pH (in words) [1]: greater solubility
loss ([2]; pH 6.0 phosphate buffer): 3%
loss ([2]; pH 6.8 phosphate buffer): 6.4%
loss ([2]; pH 7.5 phosphate buffer): 7.5%

CCc1c(C)[nH]c2c1C(=O)C(CN1CCOCC1)CC2 (stereo not drawn) [Molindone hydrochloride]
tmax ([3]; following oral administration): 1 to 1.5 h
plasma elimination half-life ([3]; oral dose): about 2 hours
